We go through 30 molecules from patent EP0545195B1, “Indolopyrrolocarbazole derivatives” (BANYU PHARMACEUTICAL CO., LTD., priority 1991, dated 1993).

The subject of one assay is mouse leukemia cell P388. Put plainly: Proliferation inhibition activity against mouse leukemia cell (Thiazoyl Blue assay). Type of assay: cell-based. The conditions noted are these: P388 cells, 24 hours culture with test compound, absorbance at 550 nm, read-out: 50% inhibitory concentration (IC₅₀). As for the experimental part:
(2) Proliferation inhibition activity against mouse leukemia cell
100 µl portions of a cell culturing medium (10% fetal bovine serum-containing-RPMI-1640 medium) containing 3x10³ mouse leukemia cell (P388) were put in a 96-hole microplate, the cells were cultured under 5% CO₂ at 37°C for 24 hours, 10 µl each of test solutions containing test compounds respectively were added respectively, and the cells were further cultured under 5% CO₂ at 37°C for 24 hours. 10 µl portions of 0.5% Thiazoyl Blue were added to the culture broths, and incubation was carried out under 5% CO₂ at 37°C for 2 hours to carry out enzymatic reaction. 20% sodium dodecyl sulfate (SDS) was added to discontinue the reaction, incubation was further carried out at 37°C for 4 hours to dissolve the formed dye, and absorbance at 550 nm was measured and compared with the control group.

The next assay has as its system mouse tumor (P388). Put plainly: Therapeutic effect against mouse tumor (P388). Type of assay: in vivo. Particulars: P388, 10⁶ cancer cells inoculated i.p. The text has this: (1) Therapeutic effect against mouse tumor (P388)
Setting [1] is: dose 1 mg/kg/injection i.p. once a day from 1st to 10th day.
[2] abbreviates: dose 3 mg/kg/injection i.p. once a day from 1st to 10th day.
[3] abbreviates: dose 10 mg/kg/injection i.p. once a day from 1st to 10th day.
[4] abbreviates: dose 30 mg/kg/injection i.p. once a day from 1st to 10th day.
Where [5] appears, read: dose 100 mg/kg/injection i.p. once a day from 1st to 10th day.

Consider `NN1C(=O)c2c(c3c4cccc(O)c4n([C@@H]4O[C@H](CO)[C@@H](O)[C@H](O)[C@H]4O)c3c3[nH]c4c(O)cccc4c23)C1=O` [Example 1], for which, in the assay with mouse leukemia cell P388, the IC50 was less than 30 nM.

With `O=C(O)C=NN1C(=O)c2c(c3c4cccc(O)c4n([C@@H]4O[C@H](CO)[C@@H](O)[C@H](O)[C@H]4O)c3c3[nH]c4c(O)cccc4c23)C1=O` [Example 2], the “MST (mean survival number of days)” value with mouse tumor (P388) (setting [1]) was 15.8 ± 0.84 days; in the assay on mouse tumor (P388) (setting [2]), 17.8 ± 1.92 days; with mouse tumor (P388) (setting [3]) it was more than 26.4 ± 18.82 days; in the assay with mouse tumor (P388) (setting [4]), more than 42.2 ± 24.38 days; in the assay on mouse tumor (P388) (setting [5]), more than 47.2 ± 18.90 days. Further, the “T/C (%) (MST of treatment group/MST of control x 100)” value in the assay with mouse tumor (P388) (setting [1]) is 128%; in the assay with mouse tumor (P388) (setting [2]) it was 145%; with mouse tumor (P388) (setting [3]), more than 245%; with mouse tumor (P388) (setting [4]), more than 343%; in the assay on mouse tumor (P388) (setting [5]), more than 384%. In the assay with mouse leukemia cell P388, the IC50 amounted to 290 nM.

As for `O=C(O)CCC=NN1C(=O)c2c(c3c4cccc(O)c4n([C@@H]4O[C@H](CO)[C@@H](O)[C@H](O)[C@H]4O)c3c3[nH]c4c(O)cccc4c23)C1=O` [Example 3], in the assay with mouse leukemia cell P388, the IC50 turned out to be 65 nM. As to `CO[C@H]1[C@H](O)[C@@H](O)[C@H](n2c3c(Cl)cccc3c3c4c(c5c6cccc(Cl)c6[nH]c5c32)C(=O)N(N)C4=O)O[C@@H]1CO` [Example 4, 6-N-aminorebeccamycin], in the assay on mouse leukemia cell P388, the IC50 turned out to be 96 nM. For `O=CNN1C(=O)c2c(c3c4cccc(O)c4n([C@@H]4O[C@H](CO)[C@@H](O)[C@H](O)[C@H]4O)c3c3[nH]c4c(O)cccc4c23)C1=O` [Example 5], the “MST (mean survival number of days)” value in the assay with mouse tumor (P388) (setting [1]) was 16.8 ± 0.84 days; in the assay with mouse tumor (P388) (setting [2]), 17.8 ± 1.92 days; in the assay on mouse tumor (P388) (setting [3]), more than 26.2 ± 10.18 days; with mouse tumor (P388) (setting [4]) it was more than 23.4 ± 9.74 days; in the assay with mouse tumor (P388) (setting [5]), more than 36.4 ± 8.05 days. Besides, the “T/C (%) (MST of treatment group/MST of control x 100)” value is listed as 137% with mouse tumor (P388) (setting [1]); 145% in the assay on mouse tumor (P388) (setting [2]); more than 213% in the assay with mouse tumor (P388) (setting [3]); more than 190% with mouse tumor (P388) (setting [4]); more than 296% in the assay on mouse tumor (P388) (setting [5]). The IC50 with mouse leukemia cell P388 was 280 nM.

`CC(=O)NN1C(=O)c2c(c3c4cccc(O)c4n([C@@H]4O[C@H](CO)[C@@H](O)[C@H](O)[C@H]4O)c3c3[nH]c4c(O)cccc4c23)C1=O` [Example 6]: in the assay on mouse leukemia cell P388, the IC50 turned out to be 59 nM. In the case of `CNN1C(=O)c2c(c3c4cccc(O)c4n([C@@H]4O[C@H](CO)[C@@H](O)[C@H](O)[C@H]4O)c3c3[nH]c4c(O)cccc4c23)C1=O` [Example 7], the IC50 in the assay with mouse leukemia cell P388 came to 91 nM. Still for that read-out and setting: the same measure for `O=C(O)CNN1C(=O)c2c(c3c4cccc(O)c4n([C@@H]4O[C@H](CO)[C@@H](O)[C@H](O)[C@H]4O)c3c3[nH]c4c(O)cccc4c23)C1=O` [Example 8]: 300 nM; for `NC(=O)NN1C(=O)c2c(c3c4cccc(O)c4n([C@@H]4O[C@H](CO)[C@@H](O)[C@H](O)[C@H]4O)c3c3[nH]c4c(O)cccc4c23)C1=O` [Example 9]: 28 nM; for `NC(=S)NN1C(=O)c2c(c3c4cccc(O)c4n([C@@H]4O[C@H](CO)[C@@H](O)[C@H](O)[C@H]4O)c3c3[nH]c4c(O)cccc4c23)C1=O` [Example 10]: 460 nM.

Turning to `CS(=O)(=O)NN1C(=O)c2c(c3c4cccc(O)c4n([C@@H]4O[C@H](CO)[C@@H](O)[C@H](O)[C@H]4O)c3c3[nH]c4c(O)cccc4c23)C1=O` [Example 11], the IC50 with mouse leukemia cell P388 is less than 26 nM. As to `CCC(=O)NN1C(=O)c2c(c3c4cccc(O)c4n([C@@H]4O[C@H](CO)[C@@H](O)[C@H](O)[C@H]4O)c3c3[nH]c4c(O)cccc4c23)C1=O` [Example 12], in the assay with mouse leukemia cell P388, the IC50 was determined as 42 nM. On the same count and under the same terms, the same measure for `O=C1c2c(c3c4cccc(O)c4n([C@@H]4O[C@H](CO)[C@@H](O)[C@H](O)[C@H]4O)c3c3[nH]c4c(O)cccc4c23)C(=O)N1NC(=O)C(F)(F)F` [Example 13]: 220 nM; for `NC(=O)CNN1C(=O)c2c(c3c4cccc(O)c4n([C@@H]4O[C@H](CO)[C@@H](O)[C@H](O)[C@H]4O)c3c3[nH]c4c(O)cccc4c23)C1=O` [Example 14]: less than 27 nM.

For the molecule `O=C1c2c(c3c4cccc(O)c4n([C@@H]4O[C@H](CO)[C@@H](O)[C@H](O)[C@H]4O)c3c3[nH]c4c(O)cccc4c23)C(=O)N1Nc1ccccn1` [Example 15], the IC50 with mouse leukemia cell P388 amounted to 310 nM.

In the case of `NC(=O)C(=O)NN1C(=O)c2c(c3c4cccc(O)c4n([C@@H]4O[C@H](CO)[C@@H](O)[C@H](O)[C@H]4O)c3c3[nH]c4c(O)cccc4c23)C1=O` [Example 17], the IC50 in the assay with mouse leukemia cell P388 is 44 nM. On the same count and under the same terms, the same measure for `NNC(=O)NN1C(=O)c2c(c3c4cccc(O)c4n([C@@H]4O[C@H](CO)[C@@H](O)[C@H](O)[C@H]4O)c3c3[nH]c4c(O)cccc4c23)C1=O` [Example 22]: 110 nM. With `O=C1c2c(c3c4cccc(O)c4n([C@@H]4O[C@H](CO)[C@@H](O)[C@H](O)[C@H]4O)c3c3[nH]c4c(O)cccc4c23)C(=O)N1NCc1cccc(O)c1` [Example 23], the IC50 in the assay with mouse leukemia cell P388 was less than 25 nM. Regarding `N#CCCNN1C(=O)c2c(c3c4cccc(O)c4n([C@@H]4O[C@H](CO)[C@@H](O)[C@H](O)[C@H]4O)c3c3[nH]c4c(O)cccc4c23)C1=O` [Example 24], in the assay on mouse leukemia cell P388, the IC50 worked out at 1 nM.

Take `O=C1c2c(c3c4cccc(O)c4n([C@@H]4O[C@H](CO)[C@@H](O)[C@H](O)[C@H]4O)c3c3[nH]c4c(O)cccc4c23)C(=O)N1NC1=NCCN1` [Example 25]: the IC50 with mouse leukemia cell P388 amounted to 48 nM. In the case of `CC(C)(C)OC(=O)NN1C(=O)c2c(c3c4cccc(O)c4n([C@@H]4O[C@H](CO)[C@@H](O)[C@H](O)[C@H]4O)c3c3[nH]c4c(O)cccc4c23)C1=O` [Example 27], in the assay with mouse leukemia cell P388, the IC50 came out at 27 nM. The same measure, in the same setting: the same measure for `C=CCNN1C(=O)c2c(c3c4cccc(O)c4n([C@@H]4O[C@H](CO)[C@@H](O)[C@H](O)[C@H]4O)c3c3[nH]c4c(O)cccc4c23)C1=O` [Example 28]: less than 29 nM; for `O=C1c2c(c3c4cccc(O)c4n([C@@H]4O[C@H](CO)[C@@H](O)[C@H](O)[C@H]4O)c3c3[nH]c4c(O)cccc4c23)C(=O)N1N(Cc1ccccc1)Cc1ccccc1` [Example 29]: 5 nM. Same read-out and setting: the same measure for `COC(=O)NN1C(=O)c2c(c3c4cccc(O)c4n([C@@H]4O[C@H](CO)[C@@H](O)[C@H](O)[C@H]4O)c3c3[nH]c4c(O)cccc4c23)C1=O` [Example 30]: 3 nM.

On to `CC1(C)OC[C@@H]([C@@H](O)C(=O)NN2C(=O)c3c(c4c5cccc(O)c5n([C@@H]5O[C@H](CO)[C@@H](O)[C@H](O)[C@H]5O)c4c4[nH]c5c(O)cccc5c34)C2=O)O1` [Example 31], for which the IC50 in the assay on mouse leukemia cell P388 stood at 11 nM. The same measure, in the same setting: the same measure for `O=C(Nc1ccccc1)NN1C(=O)c2c(c3c4cccc(O)c4n([C@@H]4O[C@H](CO)[C@@H](O)[C@H](O)[C@H]4O)c3c3[nH]c4c(O)cccc4c23)C1=O` [Example 33]: 110 nM; for `O=C(NN1C(=O)c2c(c3c4cccc(O)c4n([C@@H]4O[C@H](CO)[C@@H](O)[C@H](O)[C@H]4O)c3c3[nH]c4c(O)cccc4c23)C1=O)c1ccccc1` [Example 34]: 19 nM.

As for `O=C(NN1C(=O)c2c(c3c4cccc(O)c4n([C@@H]4O[C@H](CO)[C@@H](O)[C@H](O)[C@H]4O)c3c3[nH]c4c(O)cccc4c23)C1=O)c1ccccn1` [Example 35], the IC50 in the assay with mouse leukemia cell P388 is 170 nM. Still for that read-out and setting: the same measure for `O=C1c2c(c3c4cccc(O)c4n([C@@H]4O[C@H](CO)[C@@H](O)[C@H](O)[C@H]4O)c3c3[nH]c4c(O)cccc4c23)C(=O)N1NCCO` [Example 36]: 2 nM; for `O=C1c2c(c3c4cccc(O)c4n([C@@H]4O[C@H](CO)[C@@H](O)[C@H](O)[C@H]4O)c3c3[nH]c4c(O)cccc4c23)C(=O)N1N1CCCC1` [Example 37]: 95 nM.
